In patent US20090252680A1, “NOVEL COMPOUND WITH AFFINITY FOR AMYLOID” (NIHON- MEDI-PHYSICS CO., LTD, priority 2006, published 2009):
Read-outs that look alike come from different tables or passages of the source.

How the values were obtained:
[1] = [11C]-labeled, rats; cited from earlier work
[2] = test system: amyloid; settings: [125I]-labeled compounds; cited from earlier work
[3] = [125I]-labeled, normal mice; cited from earlier work
[4] = Measurement of transferability into brain and clearance; settings: rats, intravenous injection (tail vein); for Radioactive accumulation per unit weight of brain, after 2 min.: 2 min after injection; for Radioactive accumulation per unit weight of brain, after 5 min.: 5 min after injection; for Radioactive accumulation per unit weight of brain, after 30 min.: 30 min after injection; for Radioactive accumulation per unit weight of brain, after 60 min.: 60 min after injection
Protocol: The rats were sacrificed by bleeding from abdominal artery, and brains were removed and subjected to measurement of mass of brains and further subjected to measurement of radioactivity (hereinafter referred to as A in this Example) with a single channel analyzer (detector type: SP-20 manufactured by OHYO KOKEN KOGYO Co., Ltd.) 2, 5, 30 and 60 minutes after the injection. Also, radioactivity (hereinafter referred to as B in this Example) of the remain of the whole body was measured in the same manner as above.
The same procedures as above were performed to calculate radioactive accumulation per unit weight of brain (% ID/g) at the respective time points (Comparative Example 2).
Three animals were used for Example 15, Example 16 and Reference Example 2 at the respective time points.

[5] = Measurement of partition coefficient based on the octanol extraction method; settings: octanol / 10 mmol/L phosphate buffer (pH 7.4)
Protocol: To 2 mL of octanol, 10 μL each of the prepared sample solutions was respectively added, and 2 mL of a 10 mmol/L phosphate buffer (pH 7.4) was further added, followed by stirring for 30 seconds. After the mixture was centrifuged with a low-speed centrifuge (2000 rpm×60 min.), the octanol layer and the water layer were sampled each in an amount of 1 mL, and subjected to measurement of radioactivity count with an autowell gamma system (Type: ARC-301B, manufactured by Aloka). Using the obtained radioactivity count, logPoctanol was calculated in accordance with the equation (2).

[6] = biological target: T1, intracerebral amyloid (Homo sapiens, UniProt P05067); assay: Confirmation of imaging of amyloid in brain (autoradiogram of brain slice, amyloid injected into amygdaloid nucleus); format: in vivo, male Wistar rat; settings: 60 minutes after intravenous injection
T1 construct: Aβ1-42 (manufactured by Wako); purchased Wako
Protocol: (§1) (1) Aβ1-42 (manufactured by Wako) was dissolved in phosphate buffer (pH 7.4) and shaken at 37° C. for 72 hours, to obtain a 1 mg/mL suspension of aggregated Aβ (hereinafter referred to as amyloid suspension in this Example).
(§2) (2) 2.5 μL (corresponding to 25 μg) of the amyloid suspension was injected under thiopental anesthesia into an amygdaloid nucleus on one side of a male Wistar rat (7-week old). As a control, 2.5 μL of a phosphate buffered physiological saline solution (pH 7.4) was injected into an amygdaloid nucleus on the other side of the rat. The rats were examined 1 day after the injection of the amyloid suspension and the phosphate buffered physiological saline solution (pH 7.4).
(§3) This sample solution was injected under thiopental anesthesia into the rat through the tail vein (dosage: 0.5 mL, dosed radioactivity: 16 MBq equivalent).
(§4) (4) Brain was removed 60 minutes after the injection to prepare a brain slice of 10 μm in thickness with a microtome (type: CM3050S, manufactured by LEICA). The brain slice was exposed to an imaging plate for 20 hours, and then image analysis was carried out by use of a Bio-imaging Analyzer (type: BAS-2500; manufactured by FUJIFILM Corporation).
(§5) (5) After the completion of the image analysis using the Bio-imaging Analyzer, pathological staining with Thioflavin T was carried out to perform imaging by use of a fluorescence microscope (manufactured by NIKON Corporation; type: TE2000-U model; excitation wavelength: 400-440 nm; detection wavelength: 470 nm).

[7] = test system: intracerebral amyloid; assay: as above; format: in vivo, male Wistar rat; settings: 60 minutes after intravenous injection, control side
Protocol: as §1, §2, §3, §4, §5

[8] = biological target: amyloid (aggregated Aβ1-42) (Homo sapiens, UniProt P05067)
Excerpt: Affinity of the present compounds with amyloid was examined by the following in vitro binding tests.

T1 sequence (P05067 672-713): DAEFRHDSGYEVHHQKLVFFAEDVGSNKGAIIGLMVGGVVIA
amyloid (aggregated Aβ1-42), sequence (P05067 672-713): as above

SMILES	Clearance from normal tissues [3]	Transfer into brain [3]	Radioactive accumulation per unit weight of brain, after 2 min. [4] [% ID/g]	Radioactive accumulation per unit weight of brain, after 5 min. [4] [% ID/g]	Radioactive accumulation per unit weight of brain, after 30 min. [4] [% ID/g]	Radioactive accumulation per unit weight of brain, after 60 min. [4] [% ID/g]	logPoctanol value [5]	Accumulation of radioactivity in the amygdaloid nucleus on the side injected with amyloid suspension [6]	Accumulation of radioactivity in the amygdaloid nucleus on the side injected with physiological saline solution [7]	other results
CNc1ccc(/C=C/c2ccc(O)cc2)cc1 [SB-13, (E)-4-methylamino-4′-hydroxystilbene]										Clearance from normal tissues [1]: it cannot be said that the clearance is sufficiently fast
CN(C)c1ccc(-c2cn3cc(I)ccc3n2)cc1 [IMPY, 6-iodo-2-[4′-(N,N-dimethylamino)phenyl]imidazo[1,2-a]pyridine]										Clearance from normal tissues [2]: rapid clearance from normal tissues; Transfer to brain and accumulation at amyloid [2]: transferring to brain and accumulating at amyloid after administration
CN(C)c1ccc(-c2nc3ccc(I)cc3s2)cc1 [TZDM, 6-iodo-2-[4′-(N,N-dimethylamino)phenyl]benzothiazole]	insufficient in clearance from normal tissues	transferred into brain 2 minutes after administration								
CN(C)c1ccc(-c2cn3cc([123I])ccc3n2)cc1 [[^123I]-IMPY, reference compound]			1.19	0.97	0.23	0.09	1.9			
Fc1ccc(-c2cn3cc([123I])ccc3n2)cc1			1.00	0.72	0.12	0.05	2.3	marked accumulation of radioactivity	no significant accumulation of radioactivity	
CN(C)c1ccc(/C=C/c2ccc(I)cc2)cc1 [m-I-SB, (E)-4-dimethylamino-4′-iodostilbene]	insufficient in clearance from normal tissues	transferred into brain 2 minutes after administration								
COc1ccc2nc(-c3ccc([123I])cc3)cn2c1			1.26	0.89	0.19	0.09	2.3	marked accumulation of radioactivity	no significant accumulation of radioactivity	
CN(C)c1ccc(-c2nc3ccc(I)cc3o2)cc1 [IBOX, 6-iodo-2-[4′-(N,N-dimethylamino)phenyl]benzoxazole]	insufficient in clearance from normal tissues	transferred into brain 2 minutes after administration								
COc1ccc(-c2cn3cc([123I])ccc3n2)cc1			1.04	0.72	0.12	0.04	1.7	marked accumulation of radioactivity	no significant accumulation of radioactivity	
COc1ccc2nc(-c3ccc([125I])cc3)cn2c1 [[^125I]-2-(4′-iodophenyl)-6-methoxyimidazo[1,2-a]pyridine]										Binding to amyloid [8]: capable of binding to amyloid; Radioactive count (A−B) specifically binding to amyloid versus amyloid concentration ([8]; amyloid 25, 62.5, 250, 625 and 1000 nmol/L, 22° C., 3 hours): showed a tendency to increase with increment of the concentration of amyloid
